# How the values were obtained:
# [1] = test system: production of nitric oxide (NO); experiment: Production of nitric oxide (NO) in cultures of mouse peritoneal cells stimulated with IFN-γ plus LPS (Griess reagent); type: cell-based, mice; details: substance 50 μmol·l^−1, IFN-g plus LPS, 24 h
# Protocol: (§1) Under in vitro conditions, the effect of the pyrimidine compounds according to this invention was tested in terms of the production of nitric oxide (NO) and in terms of the production of prostaglandin E2 (PGE2) in cultures of the peritoneal cells of mice.
# NO is a product of the metabolism of L-arginine, quickly changes to […], which are then measured using the Griess reagent system. Under normal conditions, the production of NO is practically zero. It only occurs after some stimulation. In these experiments, interferon-gamma (IFN-γ) and bacterial lipopolysacharide (LPS) were used as stimulators. The values of NO induced in this way fluctuated in the individual experiments in a range from 52 to 89 μmol·l^−1; for the purposes of comparison between the experiments they were considered as 100%. The production of NO after the application of the substances was expressed in percentage with respect to the control values. (The lower the value, the higher the inhibition effect of the substances on NO production.) IC50 are the concentrations of the substances reducing the production of NO by 50% with respect to the controls.
# (§2) Experiments were performed on mice peritoneal cells C57BL/6 (Charles River, Germany—AnLabu).
# (§3) NO production was induced using IFN-g (5000 pg/mL) plus LPS (100 pg/mL); evaluated (Griess reagent) after 24 h of the cell cultivation (2×10^6/mL). PGE2 was induced using LPS (10 ng/mL); evaluated (ELISA) following 6 h cultivation of cells (3×10^6/mL). Cell longevity was evaluated using WST-1 (tetrazolium salt), following 24 h cultivation of cells (1×10^6/mL). The values mentioned in the table represent the effects of the substances tested in a concentration of 50 μmol·l^−1.
# peritoneal cells of mice = experiment: Cell viability of mouse peritoneal cells (WST-1 kit); type: cell-based; details: substance 50 μmol·l^−1, 24 h; for Cell viabilities in % of the controls: Table 3B; for Cell viability in % of the controls: Table 3A
# Protocol: Cell viability was determined in the standard way using a WST-1 kit (Roche). The values of the viability of the control cells were for the purposes of comparison between experiments considered as 100%. The influence of the substances on the longevity of the cells was evaluated in percentage with respect to the control values.
# as §2, §3
# [2] = test system: production of prostaglandin E2 (PGE2); experiment: Production of prostaglandin E2 (PGE2) in cultures of mouse peritoneal cells stimulated with LPS (ELISA kit); type: cell-based, mice; details: for Production of prostaglandins IC50 (μmol · 1^−1) average value and range of values: Table 3B, 6 h; for Production of prostaglandins in % of the controls: Table 3A, substance 50 μmol·l^−1, 6 h
# Protocol: as §1
# The influence on the production of prostaglandin E2 (PGE2) in vitro caused by the activity of the pyrimidine compounds according to the submitted invention was determined in cultures of the peritoneal cells of mice using a commercial kit (R&DSystems). The concentrations of PGE2 after lipopolysacharide (LPS) stimulation reached in the individual experiments values in a range of 22 to 91 ng·ml^−1 and for the purposes of comparison between the experiments were considered as 100%. The influence of the substances on the production of PGE2 was evaluated in percentage with respect to the control values.
# as §2, §3
SMILES,Production of nitric oxide in % of the controls ([1]; Table 3B),Cell viabilities in % of the controls (peritoneal cells of mice),Production of prostaglandins IC50 (μmol · 1^−1) average value and range of values [2],Production of nitric oxide in % of the controls ([1]; Table 3A),Cell viability in % of the controls (peritoneal cells of mice),Production of prostaglandins in % of the controls [2]
CCCCc1c(-c2ccccc2)nc(N)nc1-c1cccnc1 [Substance 78],52.81 ± 2.91; n = 4 % of the controls,78.08 ± 5.20; n = 4 % of the controls,59.49 ± 9.09; n = 2 μmol · 1^−1,–,–,–
CCCc1c(Cl)nc(N)nc1Cl [Substance 27],–,–,–,46.98 ± 10.25 % of the controls,87.86 ± 9.18 % of the controls,31.73 ± 4.35 % of the controls
CCCCc1c(-c2cccnc2)nc(N)nc1-c1ccco1 [Substance 97],37.05 ± 6.68; n = 6 % of the controls,45.54 ± 4.96; n = 8 % of the controls,48.18 ± 19.94; n = 4 μmol · 1^−1,–,–,–
CCCCc1c(-c2ccc(F)cc2)nc(N)nc1-c1cccnc1 [Substance 79],62.58 ± 2.32; n = 6 % of the controls,104.50 ± 6.37; n = 8 % of the controls,47.26 ± 5.67; n = 2 μmol · 1^−1,–,–,–
CCCCc1c(-c2ccco2)nc(N)nc1-c1cccs1 [Substance 99],31.27 ± 2.12; n = 4 % of the controls,55.22 ± 5.10; n = 4 % of the controls,13.25 ± 6.33; n = 4 μmol · 1^−1,–,–,–
CCCCc1c(-c2ccc(OC)cc2)nc(N)nc1-c1cccnc1 [Substance 80],35.18 ± 4.39; n = 4 % of the controls,103.13 ± 4.24; n = 8 % of the controls,41.84 ± 7.54; n = 2 μmol · 1^−1,–,–,–
C#CCc1c(Cl)nc(N=CN(C)C)nc1Cl [Substance 18],–,–,–,0.90 ± 0.22 % of the controls,67.89 ± 7.41 % of the controls,78.55 ± 0.38 % of the controls
CCCCc1c(-c2cccnc2)nc(N)nc1-c1cccc2ccccc12 [Substance 136],70.28 ± 3.71; n = 4 % of the controls,111.00 ± 0.97; n = 4 % of the controls,72.55 ± 19.06; n = 2 μmol · 1^−1,–,–,–
CCCCc1c(-c2ccccc2)nc(N)nc1-c1cc2ccccc2o1 [Substance 116],72.69 ± 10.36; n = 4 % of the controls,95.24 ± 4.78; n = 8 % of the controls,49.17 ± 9.72; n = 4 μmol · 1^−1,–,–,–
CCC(C)c1c(Cl)nc(NC=O)nc1Cl (stereo not drawn) [Substance 54],–,–,–,0.17 ± 0.17 % of the controls,77.51 ± 14.73 % of the controls,30.48 ± 1.79 % of the controls
CCCCc1c(Cl)nc(NCc2ccccc2)nc1Cl [Substance 145],93.01 ± 9.25; n = 6 % of the controls,147.31 ± 4.88; n = 8 % of the controls,0.28 ± 0.23; n = 4 μmol · 1^−1,–,–,–
CCCCc1c(-c2ccccc2)nc(N)nc1-c1ccc(OC)cc1 [Substance 72],55.45 ± 12.92; n = 6 % of the controls,108.35 ± 5.66; n = 8 % of the controls,3.61 ± 0.22; n = 4 μmol · 1^−1,–,–,–
CCCCc1c(-c2ccccn2)nc(N)nc1-c1cccs1 [Substance 89],19.62 ± 4.08; n = 6 % of the controls,104.15 ± 10.36; n = 8 % of the controls,92.30 ± 9.20; n = 4 μmol · 1^−1,–,–,–
